Data on one compound can be found in US4112218A, “Method of preparing sterol glycosides from plants” (Nippon Shinyaku Co., Ltd., priority 1976, dated 1978).

As usually defined, the ED50 is the dose that gives a 50% effect, or the effect in half of the subjects.

Where two headings read alike, the source gives them in different places.

The test system of assay [1] is bleeding from the amputated tail end. The assay is described as follows: hemostatic effect, Motohashi et al. model: time until bleeding from amputated mouse tail tip in water is completely stopped. Type of assay: in vivo. The settings on record: mice, tail tip amputation.
The next assay deals with pulmonary hemorrhage. The assay is described as follows: pulmonary hemorrhage in mice under reduced pressure (scoring method; vascular stabilizing effect). It counts as in vivo. Particulars: Mus musculus, reduced pressure of 50 ± 0.5 mm Hg/15 sec.

With `CN1C2=CC(=O)C(=NNC(N)=O)C=C2CC1S(=O)(=O)O` (stereo not drawn) [Carbazochrome sodium sulfonate], the ED50 was found to be 5.4 mg/kg in assay [1] (ip, read-out: ED50 i.p. (hemostatic effect)); 3.6 mg/kg in assay [1] (iv, read-out: ED50 i.v. (hemostatic effect)); 36 mg/kg in assay [1] (po, read-out: ED50 p.o. (hemostatic effect)); 112 mg/kg in the assay with pulmonary hemorrhage (ip, read-out: ED50 i.p. (pulmonary hemorrhage)); 80 mg/kg in the assay on pulmonary hemorrhage (iv, read-out: ED50 i.v. (pulmonary hemorrhage)); 400 mg/kg with pulmonary hemorrhage (po, read-out: ED50 p.o. (pulmonary hemorrhage)).
